Source: patent US20250188069A1, “COMPOUNDS AND METHODS FOR DEGRADING CASEIN KINASE 1 ALPHA” (PIN THERAPEUTICS, INC., priority 2022, published 2025)
Counter-ions that a name gives are not always drawn.

Columns and labels:
MV-4-11 cells = test: AML cell viability assay (RealTime-Glo); format: cell-based; conditions: Homo sapiens, MV4-11; IC50 class; MV-4-11 cells, RealTime-Glo after 44 hrs of treatment (TABLE 5); read-out: Cell viability classification
CK1α = CK1α (Homo sapiens, UniProt P48729+Q96SW2); test: CK1α HiBiT assay in CK1a_HiBiT_Jurkat cells; format: cell-based; conditions: DC50 class, 16 hours, Nano-Glo HiBiT Lytic Detection, read-out: CK1α degradation classification
Protocol: CK1a_HiBiT_Jurkat cells were culture in RPMI 1640 medium (Gibco, 11875093) with 10% FBS under standard tissue culture conditions. Briefly, Compounds of the present disclosure was added to 30,000 cells in a white 96-well plate (9-point dose response, top concentration […], half-log serial dilution, final DMSO concentration 0.5%) and incubated for 16 hours. CK1a level was determined in along with the Nano-Glo HiBiT Lytic Detection system [Promega N3050] with final concentration of 1 x. The luminescence was normalized to that of DMSO-treated samples. DC50 values were obtained using three-parameter non-linear regressions using Prism (GraphPad). The compounds are classified based on DC50 values as follows. • A: DC50 is less than or equal to 1×10^−7; • B: DC50 is greater than 1×10^−7 & less than or equal to 1×10^−6; • C: DC50 is greater than 1×10^−6; • NA: not calculated (no activity detected, <25% viability reduction at 1 uM)

Sequence of CK1α (P48729 whole entry): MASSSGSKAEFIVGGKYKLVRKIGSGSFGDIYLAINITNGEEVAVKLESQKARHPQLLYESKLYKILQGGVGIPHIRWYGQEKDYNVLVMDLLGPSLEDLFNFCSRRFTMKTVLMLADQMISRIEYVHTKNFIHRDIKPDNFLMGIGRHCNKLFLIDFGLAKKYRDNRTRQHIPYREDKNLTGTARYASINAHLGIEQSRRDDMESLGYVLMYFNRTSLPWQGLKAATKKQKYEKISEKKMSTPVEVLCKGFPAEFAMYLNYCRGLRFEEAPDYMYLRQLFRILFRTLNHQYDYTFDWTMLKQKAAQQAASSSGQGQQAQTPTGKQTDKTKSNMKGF
Sequence of CK1α (Q96SW2 whole entry): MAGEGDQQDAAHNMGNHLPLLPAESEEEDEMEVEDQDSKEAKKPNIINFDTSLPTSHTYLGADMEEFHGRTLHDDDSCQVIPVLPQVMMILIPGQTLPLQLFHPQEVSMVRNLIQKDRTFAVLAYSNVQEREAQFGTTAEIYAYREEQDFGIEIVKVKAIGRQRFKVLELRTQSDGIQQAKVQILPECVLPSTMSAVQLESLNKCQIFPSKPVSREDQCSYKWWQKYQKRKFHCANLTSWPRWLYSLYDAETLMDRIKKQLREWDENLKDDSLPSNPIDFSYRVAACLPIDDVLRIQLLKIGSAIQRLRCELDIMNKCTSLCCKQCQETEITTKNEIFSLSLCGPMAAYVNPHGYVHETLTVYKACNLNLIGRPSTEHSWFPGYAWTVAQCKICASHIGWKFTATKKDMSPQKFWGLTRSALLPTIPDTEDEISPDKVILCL
Sequence of CK1α (Q16531 whole entry partner): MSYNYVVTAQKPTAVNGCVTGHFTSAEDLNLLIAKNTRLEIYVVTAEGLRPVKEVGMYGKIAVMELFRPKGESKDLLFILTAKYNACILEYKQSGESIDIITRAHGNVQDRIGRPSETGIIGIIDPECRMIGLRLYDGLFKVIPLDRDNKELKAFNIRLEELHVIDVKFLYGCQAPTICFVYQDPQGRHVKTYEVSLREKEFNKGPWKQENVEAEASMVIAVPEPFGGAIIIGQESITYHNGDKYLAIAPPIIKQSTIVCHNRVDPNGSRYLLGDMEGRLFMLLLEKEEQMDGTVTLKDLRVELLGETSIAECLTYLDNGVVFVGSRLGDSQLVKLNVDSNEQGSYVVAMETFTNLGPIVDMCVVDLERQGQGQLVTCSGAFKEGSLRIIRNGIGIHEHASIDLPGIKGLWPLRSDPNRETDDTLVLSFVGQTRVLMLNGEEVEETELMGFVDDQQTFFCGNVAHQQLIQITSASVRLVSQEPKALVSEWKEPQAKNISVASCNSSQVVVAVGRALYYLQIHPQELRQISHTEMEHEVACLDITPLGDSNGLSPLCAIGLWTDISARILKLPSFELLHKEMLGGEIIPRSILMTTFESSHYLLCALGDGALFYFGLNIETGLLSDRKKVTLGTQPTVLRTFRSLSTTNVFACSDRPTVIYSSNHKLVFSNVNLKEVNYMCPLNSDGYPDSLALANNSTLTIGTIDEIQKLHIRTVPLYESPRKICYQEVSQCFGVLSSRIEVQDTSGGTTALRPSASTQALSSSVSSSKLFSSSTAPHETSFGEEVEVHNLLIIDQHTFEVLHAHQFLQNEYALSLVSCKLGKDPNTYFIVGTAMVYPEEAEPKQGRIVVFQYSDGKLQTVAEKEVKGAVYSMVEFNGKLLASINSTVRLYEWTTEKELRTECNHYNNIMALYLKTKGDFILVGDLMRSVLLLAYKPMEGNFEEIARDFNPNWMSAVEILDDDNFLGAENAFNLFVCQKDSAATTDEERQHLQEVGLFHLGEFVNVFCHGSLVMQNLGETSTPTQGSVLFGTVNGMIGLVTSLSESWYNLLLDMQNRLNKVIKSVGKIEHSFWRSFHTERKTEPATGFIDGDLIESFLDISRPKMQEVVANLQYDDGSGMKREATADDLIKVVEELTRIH

Structure (SMILES)	IC50 (MV-4-11 cells)	DC50 (CK1α)
CN(CCC(F)F)[C@H]1CC[C@H](N(CCC2CC2)c2cccc3c2CN(C2CCC(=O)NC2=O)C3=O)CC1 (some centres unmarked) [Compound 683, 3-(4-((2-cyclopropylethyl)((1r,4r)-4-((3,3-difluoropropyl)(methyl)amino)cyclohexyl)amino)-1-oxoisoindolin-2-yl)piperidine-2,6-dione tris(2,2,2-trifluoroacetate)]	< 100 nM	≤ 100 nM
O=C1CCC(N2Cc3c(cccc3N(CCC3CC3)[C@H]3CC[C@H](NCCC(F)F)CC3)C2=O)C(=O)N1 (some centres unmarked) [Compound 643, 3-{4-[(2-cyclopropylethyl)[(1r,4r)-4-[(3,3-difluoropropyl)amino]cyclohexyl]amino]-1-oxo-3H-isoindol-2-yl}piperidine-2,6-dione; trifluoroacetic acid]	< 100 nM	≤ 100 nM
O=C1CCC(N2Cc3c(cccc3N(CC3CC(F)(F)C3)[C@H]3CC[C@H](NCC4(C(F)(F)F)CC4)CC3)C2=O)C(=O)N1 (some centres unmarked) [Compound 655, 3-(4-{[(3,3-difluorocyclobutyl)methyl][(1r,4r)-4-({[1-(trifluoromethyl)cyclopropyl]methyl}amino)cyclohexyl]amino}-1-oxo-3H-isoindol-2-yl)piperidine-2,6-dione]	> 1000 nM	100 to 1000 nM
O=C1CCC(N2Cc3c(cccc3N(CCC3CC3)[C@H]3CC[C@H](NCc4ncco4)CC3)C2=O)C(=O)N1 (some centres unmarked) [Compound 662]	100 to 1000 nM	≤ 100 nM
CN(CCC(F)(F)F)[C@H]1CC[C@H](N(CCC2CC2)c2cccc3c2CN(C2CCC(=O)NC2=O)C3=O)CC1 (some centres unmarked) [Compound 682]	< 100 nM	≤ 100 nM
CN(CCCC(F)(F)F)[C@H]1CC[C@H](N(CCC2CC2)c2cccc3c2CN(C2CCC(=O)NC2=O)C3=O)CC1 (some centres unmarked) [Compound 681, 3-{4-[(2-cyclopropylethyl)[(1r,4r)-4-[methyl(4,4,4-trifluorobutyl)amino]cyclohexyl]amino]-1-oxo-3H-isoindol-2-yl}piperidine-2,6-dione]	< 100 nM	≤ 100 nM
O=C1CCC(N2Cc3c(cccc3N(CCC3CC3)[C@H]3CC[C@H](N4CC(C(F)(F)F)C4)CC3)C2=O)C(=O)N1 (some centres unmarked) [Compound 673]	> 1000 nM	≤ 100 nM
O=C1CCC(N2Cc3c(cccc3N(CCC3CC3)C34CC(CNCCC(F)(F)F)(C3)C4)C2=O)C(=O)N1 (centres unmarked) [Compound 703, 3-{4-[(2-cyclopropylethyl)(3-{[(3,3,3-trifluoropropyl)amino]methyl}bicyclo[1.1.1]pentan-1-yl)amino]-1-oxo-3H-isoindol-2-yl}piperidine-2,6-dione]	100 to 1000 nM	≤ 100 nM
O=C1CCC(N2Cc3c(cccc3N(CCC3CC3)[C@H]3CC[C@H](N[C@H]4CC[C@@H]4C(F)(F)F)CC3)C2=O)C(=O)N1 (stereo partly drawn) [Compound 675, 3-{4-[(2-cyclopropylethyl)[(1r,4r)-4-{[(1S,2S)-2-(trifluoromethyl)cyclobutyl]amino}cyclohexyl]amino]-1-oxo-3H-isoindol-2-yl}piperidine-2,6-dione; bis(trifluoroacetic acid)]	100 to 1000 nM	≤ 100 nM
O=C1CCC(N2Cc3c(cccc3N(CCC3CC3)C3CCC(N[C@H]4C[C@@H]4C(F)(F)F)CC3)C2=O)C(=O)N1 (stereo partly drawn) [Compound 678, 3-(4-((2-cyclopropylethyl)(4-(((1S,2S)-2-(trifluoromethyl)cyclopropyl)amino)cyclohexyl)amino)-1-oxoisoindolin-2-yl)piperidine-2,6-dione Trifluoroacetate]	100 to 1000 nM	100 to 1000 nM
CC1(C)CC(CN(c2cccc3c2CN(C2CCC(=O)NC2=O)C3=O)[C@H]2CC[C@H](NCC3(C(F)(F)F)CC3)CC2)C1 (some centres unmarked) [Compound 657, 3-(4-{[(3,3-dimethylcyclobutyl)methyl][(1r,4r)-4-({[1-(trifluoromethyl)cyclopropyl]methyl}amino)cyclohexyl]amino}-1-oxo-3H-isoindol-2-yl)piperidine-2,6-dione; bis(trifluoroacetic acid)]	> 1000 nM	100 to 1000 nM
O=C1CCC(N2Cc3c(cccc3N(CC3CC4(CCC4)C3)[C@H]3CC[C@H](NCCC(F)(F)F)CC3)C2=O)C(=O)N1 (some centres unmarked) [Compound 651, 3-(1-oxo-4-{[(1r,4r)-4-[(3,3,3-trifluoropropyl)amino]cyclohexyl]({spiro[3.3]heptan-2-ylmethyl})amino}-3H-isoindol-2-yl)piperidine-2,6-dione; trifluoroacetic acid]	> 1000 nM	≤ 100 nM
O=C1CCC(N2Cc3c(cccc3N(CCC3CC3)[C@H]3CC[C@@H](NCCCC(F)(F)F)CC3)C2=O)C(=O)N1 (some centres unmarked) [Compound 642A]	> 1000 nM	≤ 100 nM
O=C1CCC(N2Cc3c(cccc3N(CC3CC(F)(F)C3)[C@H]3CC[C@H](NCCC(F)(F)F)CC3)C2=O)C(=O)N1 (some centres unmarked) [Compound 650, 3-(4-{[(3,3-difluorocyclobutyl)methyl][(1r,4r)-4-[(3,3,3-trifluoropropyl)amino]cyclohexyl]amino}-1-oxo-3H-isoindol-2-yl)piperidine-2,6-dione]	100 to 1000 nM	≤ 100 nM
O=C1CCC(N2Cc3c(cccc3N(CC3CC4(CCC4)C3)[C@H]3CC[C@H](NCC4(C(F)(F)F)CC4)CC3)C2=O)C(=O)N1 (some centres unmarked) [Compound 656, 3-(1-oxo-4-{[(1r,4r)-4-({[1-(trifluoromethyl)cyclopropyl]methyl}amino)cyclohexyl]({spiro[3.3]heptan-2-ylmethyl})amino}-3H-isoindol-2-yl)piperidine-2,6-dione; trifluoroacetic acid]	100 to 1000 nM	100 to 1000 nM
CN(C)[C@H]1CC[C@H](N(CCC2CC2)c2cccc3c2CN(C2CCC(=O)NC2=O)C3=O)CC1 (some centres unmarked) [Compound 668, 3-{4-[(2-cyclopropylethyl)[(1r,4r)-4-(dimethylamino)cyclohexyl]amino]-1-oxo-3H-isoindol-2-yl}piperidine-2,6-dione]	< 100 nM	≤ 100 nM
CC1(C)CC(CN(c2cccc3c2CN(C2CCC(=O)NC2=O)C3=O)[C@H]2CC[C@H](NCCC(F)(F)F)CC2)C1 (single isomer, unassigned) [Compound 652A, 3-(4-{[(3,3-dimethylcyclobutyl)methyl][(1s,4s)-4-[(3,3,3-trifluoropropyl)amino]cyclohexyl]amino}-1-oxo-3H-isoindol-2-yl)piperidine-2,6-dione; bis(trifluoroacetic acid)]	> 1000 nM	> 1000 nM
O=C1CCC(N2Cc3c(cccc3N(CCC3CC3)[C@H]3CC[C@H](N4CCC(F)(F)CC4)CC3)C2=O)C(=O)N1 (some centres unmarked) [Compound 716, 3-(4-((2-cyclopropylethyl)((1r,4r)-4-(4,4-difluoropiperidin-1-yl)cyclohexyl)amino)-1-oxoisoindolin-2-yl)piperidine-2,6-dione 2,2,2-trifluoroacetate]	100 to 1000 nM	≤ 100 nM
NC(=O)C12CC(N(CCC3CC3)c3cccc4c3CN(C3CCC(=O)NC3=O)C4=O)(C1)C2 (centres unmarked) [Compound 659, 3-[(2-cyclopropylethyl)[2-(2,6-dioxopiperidin-3-yl)-1-oxo-3H-isoindol-4-yl]amino]bicyclo[1.1.1]pentane-1-carboxamide]	100 to 1000 nM	≤ 100 nM
O=C1CCC(N2Cc3c(cccc3N(CCC3CC3)[C@H]3CC[C@H](N4CCC(F)C4)CC3)C2=O)C(=O)N1 (some centres unmarked) [Compound 671, 3-{4-[(2-cyclopropylethyl)[(1r,4r)-4-(3-fluoropyrrolidin-1-yl)cyclohexyl]amino]-1-oxo-3H-isoindol-2-yl}piperidine-2,6-dione]	100 to 1000 nM	≤ 100 nM
COCCN(C)[C@H]1CC[C@H](N(CCC2CC2)c2cccc3c2CN(C2CCC(=O)NC2=O)C3=O)CC1 (some centres unmarked) [Compound 680]	100 to 1000 nM	≤ 100 nM
NCC12CC(N(CCC3CC3)c3cccc4c3CN(C3CCC(=O)NC3=O)C4=O)(C1)C2 (centres unmarked) [Compound 660, 3-(4-{[3-(aminomethyl)bicyclo[1.1.1]pentan-1-yl](2-cyclopropylethyl)amino}-1-oxo-3H-isoindol-2-yl)piperidine-2,6-dione]	100 to 1000 nM	≤ 100 nM
O=C1CCC(N2Cc3c(cccc3N(CCC3CC3)[C@H]3CC[C@H](N4CCC(C(F)(F)F)C4)CC3)C2=O)C(=O)N1 (some centres unmarked) [Compound 672, 3-{4-[(2-cyclopropylethyl)[(1r,4r)-4-[3-(trifluoromethyl)pyrrolidin-1-yl]cyclohexyl]amino]-1-oxo-3H-isoindol-2-yl}piperidine-2,6-dione; trifluoroacetic acid]	100 to 1000 nM	≤ 100 nM
O=C1CCC(N2Cc3c(cccc3N(CCC3CC3)[C@H]3CC[C@H](NCC4CCCO4)CC3)C2=O)C(=O)N1 (some centres unmarked) [Compound 666, 3-{4-[(2-cyclopropylethyl)[(1r,4r)-4-[(oxolan-2-ylmethyl)amino]cyclohexyl]amino]-1-oxo-3H-isoindol-2-yl}piperidine-2,6-dione]	< 100 nM	≤ 100 nM
O=C1CCC(N2Cc3c(cccc3N(CCC3CC3)[C@H]3CC[C@H](NCc4ccccn4)CC3)C2=O)C(=O)N1 (some centres unmarked) [Compound 665, 3-{4-[(2-cyclopropylethyl)[(1r,4r)-4-[(pyridin-2-ylmethyl)amino]cyclohexyl]amino]-1-oxo-3H-isoindol-2-yl}piperidine-2,6-dione; formic acid]	100 to 1000 nM	≤ 100 nM
